Patent publication US12077503B2, “Substituted cyclic amides and their use as herbicides” (FMC CORPORATION, priority 2015, dated 2024)

Experiments:
Format in all cases: in vivo
[1] = tested on: barnyardgrass (Echinochloa crus-galli); experiment: Test G Pre-Emergence Protocol; conditions: Echinochloa crus-galli, pre-emergence, 312 h, evaluated after 13 days; for pest or weed control at 15.625 g/ha: 15.625 g ai/ha; for pest or weed control at 15.625 g/ha / pest or weed control at 250 g/ha: read-out: Barnyardgrass damage rating (100=total damage to plant; 0=no damage to plant); for pest or weed control at 62.5 g/ha: 62.5 g ai/ha, 100=total damage to plant, 0=no damage to plant, read-out: Barnyardgrass damage rating; for pest or weed control at 250 g/ha: 250 g ai/ha
Outline: (§1)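 Visual injury (0–100) at day 13 after a single pre-emergence spray. Rates: 15.625, 62.5, 250 g/ha in acetone–water 50:50 with 0.5% Tween 20. Growth conditions: 24/16° C, 14 h light, 65% humidity.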

corn (Zea mays) [2] = experiment: Test G Pre-Emergence Protocol; conditions: Zea mays, pre-emergence, 312 h, evaluated after 13 days; for plant injury at 15.625 g/ha: 15.625 g ai/ha; for plant injury at 15.625 g/ha / plant injury at 250 g/ha: read-out: Corn damage rating (100=total damage to plant; 0=no damage to plant); for plant injury at 62.5 g/ha: 62.5 g ai/ha, 100=total damage to plant, 0=no damage to plant, read-out: Corn damage rating; for plant injury at 250 g/ha: 250 g ai/ha
Outline: as §1

[3] = tested on: giant foxtail (Setaria faberi); experiment: Test G Pre-Emergence Protocol; conditions: Setaria faberi, pre-emergence, 312 h, evaluated after 13 days; for pest or weed control at 15.625 g/ha: 15.625 g ai/ha; for pest or weed control at 15.625 g/ha / pest or weed control at 250 g/ha: read-out: Foxtail, Giant damage rating (100=total damage to plant; 0=no damage to plant); for pest or weed control at 62.5 g/ha: 62.5 g ai/ha, 100=total damage to plant, 0=no damage to plant, read-out: Foxtail, Giant damage rating; for pest or weed control at 250 g/ha: 250 g ai/ha
Outline: as §1

[4] = tested on: ivy-leaved morning glory (Ipomoea hederacea); experiment: Test G Pre-Emergence Protocol; conditions: Ipomoea, pre-emergence, 312 h, evaluated after 13 days; for pest or weed control at 15.625 g/ha: 15.625 g ai/ha; for pest or weed control at 15.625 g/ha / pest or weed control at 250 g/ha: read-out: Morningglory, Ivy-leaved damage rating (100=total damage to plant; 0=no damage to plant); for pest or weed control at 62.5 g/ha: 62.5 g ai/ha, 100=total damage to plant, 0=no damage to plant, read-out: Morningglory, Ivy-leaved damage rating; for pest or weed control at 250 g/ha: 250 g ai/ha
Outline: as §1

[5] = tested on: redroot pigweed (Amaranthus retroflexus); experiment: Test G Pre-Emergence Protocol; conditions: Amaranthus retroflexus, pre-emergence, 312 h, evaluated after 13 days; for pest or weed control at 15.625 g/ha: 15.625 g ai/ha; for pest or weed control at 15.625 g/ha / pest or weed control at 250 g/ha: read-out: Pigweed, Redroot damage rating (100=total damage to plant; 0=no damage to plant); for pest or weed control at 62.5 g/ha: 62.5 g ai/ha, 100=total damage to plant, 0=no damage to plant, read-out: Pigweed, Redroot damage rating; for pest or weed control at 250 g/ha: 250 g ai/ha
Outline: as §1

[6] = tested on: velvetleaf (Abutilon theophrasti); experiment: Test G Pre-Emergence Protocol; conditions: Abutilon theophrasti, pre-emergence, 312 h, evaluated after 13 days; for pest or weed control at 15.625 g/ha: 15.625 g ai/ha; for pest or weed control at 15.625 g/ha / pest or weed control at 250 g/ha: read-out: Velvetleaf damage rating (100=total damage to plant; 0=no damage to plant); for pest or weed control at 62.5 g/ha: 62.5 g ai/ha, 100=total damage to plant, 0=no damage to plant, read-out: Velvetleaf damage rating; for pest or weed control at 250 g/ha: 250 g ai/ha
Outline: as §1

[7] = tested on: barnyardgrass (Echinochloa crus-galli); experiment: Test G Post-Emergence Protocol; conditions: Echinochloa crus-galli, post-emergence, 312 h, read-out: Barnyardgrass damage rating; for pest or weed control at 15.625 g/ha: 15.625 g ai/ha, evaluated after 13 days (100=total damage to plant; 0=no damage to plant); for pest or weed control at 62.5 g/ha: 62.5 g ai/ha; for pest or weed control at 62.5 g/ha / pest or weed control at 250 g/ha: evaluated after 13 days, 100=total damage to plant, 0=no damage to plant; for pest or weed control at 250 g/ha: 250 g ai/ha
Outline: (§2)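 Sow in soil; grow 8 d (24/16 °C, 14 h light, 65% humidity); spray 15.625/62.5/250 g/ha in acetone:water 50:50 + 0.5% Tween 20; grow on, water twice daily; score damage 0–100 at 13 d.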

corn (Zea mays) [8] = experiment: Test G Post-Emergence Protocol; conditions: Zea mays, post-emergence, 312 h, read-out: Corn damage rating; for plant injury at 15.625 g/ha: 15.625 g ai/ha, evaluated after 13 days (100=total damage to plant; 0=no damage to plant); for plant injury at 62.5 g/ha: 62.5 g ai/ha; for plant injury at 62.5 g/ha / plant injury at 250 g/ha: evaluated after 13 days, 100=total damage to plant, 0=no damage to plant; for plant injury at 250 g/ha: 250 g ai/ha
Outline: as §2

[9] = tested on: giant foxtail (Setaria faberi); experiment: Test G Post-Emergence Protocol; conditions: Setaria faberi, post-emergence, 312 h, read-out: Foxtail, Giant damage rating; for pest or weed control at 15.625 g/ha: 15.625 g ai/ha, evaluated after 13 days (100=total damage to plant; 0=no damage to plant); for pest or weed control at 62.5 g/ha: 62.5 g ai/ha; for pest or weed control at 62.5 g/ha / pest or weed control at 250 g/ha: evaluated after 13 days, 100=total damage to plant, 0=no damage to plant; for pest or weed control at 250 g/ha: 250 g ai/ha
Outline: as §2

[10] = tested on: ivy-leaved morning glory (Ipomoea hederacea); experiment: Test G Post-Emergence Protocol; conditions: Ipomoea, post-emergence, 312 h, read-out: Morningglory, Ivy-leaved damage rating; for pest or weed control at 15.625 g/ha: 15.625 g ai/ha, evaluated after 13 days (100=total damage to plant; 0=no damage to plant); for pest or weed control at 62.5 g/ha: 62.5 g ai/ha; for pest or weed control at 62.5 g/ha / pest or weed control at 250 g/ha: evaluated after 13 days, 100=total damage to plant, 0=no damage to plant; for pest or weed control at 250 g/ha: 250 g ai/ha
Outline: as §2

[11] = tested on: redroot pigweed (Amaranthus retroflexus); experiment: Test G Post-Emergence Protocol; conditions: Amaranthus retroflexus, post-emergence, 312 h, read-out: Pigweed, Redroot damage rating; for pest or weed control at 15.625 g/ha: 15.625 g ai/ha, evaluated after 13 days (100=total damage to plant; 0=no damage to plant); for pest or weed control at 62.5 g/ha: 62.5 g ai/ha; for pest or weed control at 62.5 g/ha / pest or weed control at 250 g/ha: evaluated after 13 days, 100=total damage to plant, 0=no damage to plant; for pest or weed control at 250 g/ha: 250 g ai/ha
Outline: as §2

[12] = tested on: velvetleaf (Abutilon theophrasti); experiment: Test G Post-Emergence Protocol; conditions: Abutilon theophrasti, post-emergence, 312 h, read-out: Velvetleaf damage rating; for pest or weed control at 15.625 g/ha: 15.625 g ai/ha, evaluated after 13 days (100=total damage to plant; 0=no damage to plant); for pest or weed control at 62.5 g/ha: 62.5 g ai/ha; for pest or weed control at 62.5 g/ha / pest or weed control at 250 g/ha: evaluated after 13 days, 100=total damage to plant, 0=no damage to plant; for pest or weed control at 250 g/ha: 250 g ai/ha
Outline: as §2

Row | SMILES | pest or weed control at 15.625 g/ha [1] [%] | pest or weed control at 62.5 g/ha [1] [%] | pest or weed control at 250 g/ha [1] [%] | plant injury at 15.625 g/ha (corn (Zea mays) [2]) [%] | plant injury at 62.5 g/ha (corn (Zea mays) [2]) [%] | plant injury at 250 g/ha (corn (Zea mays) [2]) [%] | pest or weed control at 15.625 g/ha [3] [%] | pest or weed control at 62.5 g/ha [3] [%] | pest or weed control at 250 g/ha [3] [%] | pest or weed control at 15.625 g/ha [4] [%] | pest or weed control at 62.5 g/ha [4] [%] | pest or weed control at 250 g/ha [4] [%] | pest or weed control at 15.625 g/ha [5] [%] | pest or weed control at 62.5 g/ha [5] [%] | pest or weed control at 250 g/ha [5] [%] | pest or weed control at 15.625 g/ha [6] [%] | pest or weed control at 62.5 g/ha [6] [%] | pest or weed control at 250 g/ha [6] [%] | pest or weed control at 15.625 g/ha [7] [%] | pest or weed control at 62.5 g/ha [7] [%] | further results
1 | CN1C[C@H](c2cccc(C(F)(F)F)c2)[C@@H](C(=O)Nc2ccc3cccnc3n2)C1=O (racemic) [Compound 1676] | 0 | 0 | 0 | 0 | 0 | 0 | 0 | 0 | 0 | 0 | 0 | 0 | 0 | 0 | 0 | 0 | 0 | 0 | 0 | 0 | pest or weed control at 250 g/ha [7]: 0%; plant injury at 15.625 g/ha (corn (Zea mays) [8]): 0%; plant injury at 62.5 g/ha (corn (Zea mays) [8]): 0%; plant injury at 250 g/ha (corn (Zea mays) [8]): 0%; pest or weed control at 15.625 g/ha [9]: 0%; pest or weed control at 62.5 g/ha [9]: 0%; pest or weed control at 250 g/ha [9]: 0%; pest or weed control at 15.625 g/ha [10]: 0%; pest or weed control at 62.5 g/ha [10]: 0%; pest or weed control at 250 g/ha [10]: 0%; pest or weed control at 15.625 g/ha [11]: 0%; pest or weed control at 62.5 g/ha [11]: 0%; pest or weed control at 250 g/ha [11]: 0%; pest or weed control at 15.625 g/ha [12]: 0%; pest or weed control at 62.5 g/ha [12]: 0%; pest or weed control at 250 g/ha [12]: 0%
2 | CN1C[C@H](c2ccc(C(F)(F)F)cc2)[C@@H](C(=O)Nc2cccc(F)c2S(C)(=O)=O)C1=O (racemic) [Compound 1680] | 0 | 20 | 60 | 0 | 0 | 0 | 20 | 60 | 90 | 0 | 0 | 0 | 20 | 20 | 70 | 10 | 10 | 90 | 20 | 20 | pest or weed control at 250 g/ha [7]: 50%; plant injury at 15.625 g/ha (corn (Zea mays) [8]): 0%; plant injury at 62.5 g/ha (corn (Zea mays) [8]): 0%; plant injury at 250 g/ha (corn (Zea mays) [8]): 0%; pest or weed control at 15.625 g/ha [9]: 30%; pest or weed control at 62.5 g/ha [9]: 80%; pest or weed control at 250 g/ha [9]: 80%; pest or weed control at 15.625 g/ha [10]: 10%; pest or weed control at 62.5 g/ha [10]: 10%; pest or weed control at 250 g/ha [10]: 20%; pest or weed control at 15.625 g/ha [11]: 50%; pest or weed control at 62.5 g/ha [11]: 60%; pest or weed control at 250 g/ha [11]: 60%; pest or weed control at 15.625 g/ha [12]: 0%; pest or weed control at 62.5 g/ha [12]: 10%; pest or weed control at 250 g/ha [12]: 0%
3 | COC(=O)c1cc([C@H]2CN(C)C(=O)[C@@H]2C(=O)Nc2ccccc2F)ccc1F (racemic) [Compound 1682] | 0 | 0 | 0 | 0 | 0 | 0 | 0 | 0 | 0 | 0 | 0 | 0 | 0 | 0 | 0 | 0 | 0 | 0 | 0 | 0 | pest or weed control at 250 g/ha [7]: 0%; plant injury at 15.625 g/ha (corn (Zea mays) [8]): 0%; plant injury at 62.5 g/ha (corn (Zea mays) [8]): 0%; plant injury at 250 g/ha (corn (Zea mays) [8]): 0%; pest or weed control at 15.625 g/ha [9]: 0%; pest or weed control at 62.5 g/ha [9]: 0%; pest or weed control at 15.625 g/ha [10]: 0%; pest or weed control at 62.5 g/ha [10]: 0%; pest or weed control at 250 g/ha [10]: 0%; pest or weed control at 15.625 g/ha [11]: 0%; pest or weed control at 62.5 g/ha [11]: 0%; pest or weed control at 250 g/ha [11]: 0%; pest or weed control at 15.625 g/ha [12]: 0%; pest or weed control at 62.5 g/ha [12]: 0%; pest or weed control at 250 g/ha [12]: 0%
